This is an account of results in patent US20240174603A1 (Rappta Therapeutics Oy, priority 2021, published 2024).

Molecules are shown by their SMILES. Structures can show the parent of a compound that is named as a salt.

The subject of this assay is LNCaP cells. The assay is described as follows: LNCaP cell viability assay (MTS). Conditions: Homo sapiens, LNCaP cell line. The class given is cell-based. In outline:
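GI50 derived by nonlinear four-parameter curve fitting (bottom fixed at zero) of MTS viability data. Prostate LNCaP cells seeded at 5000/well were given compound doses from 1 to 80 µM one day after plating and assayed after 48 h of exposure.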

Under “LNCaP, 48 h”, `CN1CCN(CC(NS(=O)(=O)c2ccc(OC(F)(F)F)cc2)c2ccc(Cl)c(Cl)c2)CC1` (stereo not drawn) [Compound 185, N-(1-(3,4-dichlorophenyl)-2-(4-methylpiperazin-1-yl)ethyl)-4-(trifluoromethoxy)benzenesulfonamide] had a GI50 of 12.6 µM. Still for that read-out and setting: under `CN(C)CC(NS(=O)(=O)c1ccc(C(=O)Nc2ccccc2)cc1)c1ccc(Cl)c(Cl)c1` (stereo not drawn) [Compound 186, 4-(N-(1-(3,4-dichlorophenyl)-2-(dimethylamino)ethyl)sulfamoyl)-N-phenylbenzamide] stands 48.2 µM; under `CN(C)CC(NS(=O)(=O)c1ccc(C(=O)NC2CCCCC2)cc1)c1ccc(Cl)c(Cl)c1` (stereo not drawn) [Compound 187, N-cyclohexyl-4-(N-(1-(3,4-dichlorophenyl)-2-(dimethylamino)ethyl)sulfamoyl)benzamide], 53.6 µM. On the same count and under the same terms, under `CN(C)CC(NS(=O)(=O)c1ccc(Nc2ccccc2)cc1)c1ccc(Cl)c(Cl)c1` (stereo not drawn) [Compound 188, N-(1-(3,4-dichlorophenyl)-2-(dimethylamino)ethyl)-4-(phenylamino)benzenesulfonamide] stands 13.6 µM.

Turning to `CN(C)CC(NS(=O)(=O)c1ccc(Oc2ccccc2)cc1)c1cccc(C(F)(F)F)c1` (stereo not drawn) [Compound 189, N-(2-(dimethylamino)-1-(3-(trifluoromethyl)phenyl)ethyl)-4-phenoxybenzenesulfonamide], under “LNCaP, 48 h”, it took 12.1 µM to inhibit growth by half (GI50). On to `CN(C)CC(NS(=O)(=O)c1ccc(Oc2ccccc2)cc1)c1ccc(Cl)cc1` (stereo not drawn) [Compound 190, N-(1-(4-chlorophenyl)-2-(dimethylamino)ethyl)-4-phenoxybenzenesulfonamide], for which it took 11.8 µM to inhibit growth (LNCaP, 48 h) by half (GI50).

With `CN(C)CC(NS(=O)(=O)c1ccc(OC(F)(F)F)c(Cl)c1)c1cccc(C(F)(F)F)c1` (stereo not drawn) [Compound 191, 3-chloro-N-(2-(dimethylamino)-1-(3-(trifluoromethyl)phenyl)ethyl)-4-(trifluoromethoxy)benzenesulfonamide], for the setting “LNCaP, 48 h”, growth was halved (GI50) at 16.5 µM. The molecule `CN(C)CC(NS(=O)(=O)c1ccc(OC(F)(F)F)c(Cl)c1)c1ccc(Cl)cc1` (stereo not drawn) [Compound 192, 3-chloro-N-(1-(4-chlorophenyl)-2-(dimethylamino)ethyl)-4-(trifluoromethoxy)benzenesulfonamide] had a GI50 (LNCaP, 48 h) of 14.4 µM. Same read-out and setting: under `CN(C)CC(NS(=O)(=O)c1ccc(Oc2ccc(C(F)(F)F)cc2)cc1)c1cccc(C(F)(F)F)c1` (stereo not drawn) [Compound 193, N-(2-(dimethylamino)-1-(3-(trifluoromethyl)phenyl)ethyl)-4-(4-(trifluoromethyl)phenoxy)benzenesulfonamide] stands 19.6 µM; under `CN(C)CC(NS(=O)(=O)c1ccc(Oc2ccc(C(F)(F)F)cc2)cc1)c1ccc(Cl)cc1` (stereo not drawn) [Compound 194, N-(1-(4-chlorophenyl)-2-(dimethylamino)ethyl)-4-(4-(trifluoromethyl)phenoxy)benzenesulfonamide], 12.2 µM. In turn, `CN(C)CC(NS(=O)(=O)c1ccc(OC(F)(F)F)c([N+](=O)[O-])c1)c1cccc(C(F)(F)F)c1` (stereo not drawn) [Compound 205, N-(2-(dimethylamino)-1-(3-(trifluoromethyl)phenyl)ethyl)-3-nitro-4-(trifluoromethoxy)benzenesulfonamide] returned a GI50 (LNCaP, 48 h) of 2.27 µM. Still for that read-out and setting: under `CN(C)CC(NS(=O)(=O)c1ccc(OC(F)(F)F)c([N+](=O)[O-])c1)c1ccc(Cl)cc1` (stereo not drawn) [Compound 206, N-(1-(4-chlorophenyl)-2-(dimethylamino)ethyl)-3-nitro-4-(trifluoromethoxy)benzenesulfonamide] stands 1.77 µM.

`CN(C)CC(NS(=O)(=O)c1ccc(OCC2CC2)cc1)c1ccc(Cl)c(Cl)c1` (stereo not drawn) [Compound 207, 4-(cyclopropylmethoxy)-N-(1-(3,4-dichlorophenyl)-2-(dimethylamino)ethyl)benzenesulfonamide] registered a GI50 (LNCaP, 48 h) of 21.8 µM. This GI50 is about 12-fold higher than that of the molecule before. On the same count and under the same terms, to `CC(C)Oc1ccc(S(=O)(=O)NC(CN(C)C)c2ccc(Cl)c(Cl)c2)cc1` (stereo not drawn) [Compound 208, N-(1-(3,4-dichlorophenyl)-2-(dimethylamino)ethyl)-4-isopropoxybenzenesulfonamide] belongs 25.4 µM; to `CN(C)CC(NS(=O)(=O)c1ccc(OC2CCCCC2)cc1)c1ccc(Cl)c(Cl)c1` (stereo not drawn) [Compound 209], 11.1 µM. On the same count and under the same terms, to `CN(C)CC(NS(=O)(=O)c1ccc(OC2CCCC2)cc1)c1ccc(Cl)c(Cl)c1` (stereo not drawn) [Compound 210, 4-(cyclopentyloxy)-N-(1-(3,4-dichlorophenyl)-2-(dimethylamino)ethyl)benzenesulfonamide] belongs 12.5 µM; to `CN(C)CC(NS(=O)(=O)c1ccc(Oc2ccccn2)cc1)c1ccc(Cl)c(Cl)c1` (stereo not drawn) [Compound 211, N-(1-(3,4-dichlorophenyl)-2-(dimethylamino)ethyl)-4-(pyridin-2-yloxy)benzenesulfonamide], 75 µM. Still for that read-out and setting: to `CCc1ccc(S(=O)(=O)NC(CN(C)C)c2ccc(Cl)c(Cl)c2)cc1` (stereo not drawn) [Compound 212, N-(1-(3,4-dichlorophenyl)-2-(dimethylamino)ethyl)-4-ethylbenzenesulfonamide] belongs 34.6 µM; to `CC(C)c1ccc(S(=O)(=O)NC(CN(C)C)c2ccc(Cl)c(Cl)c2)cc1` (stereo not drawn) [Compound 213, N-(1-(3,4-dichlorophenyl)-2-(dimethylamino)ethyl)-4-isopropylbenzenesulfonamide], 25.2 µM.

In the case of `CCCCc1ccc(S(=O)(=O)NC(CN(C)C)c2ccc(Cl)c(Cl)c2)cc1` (stereo not drawn) [Compound 214, 4-butyl-N-(1-(3,4-dichlorophenyl)-2-(dimethylamino)ethyl)benzenesulfonamide], for the setting “LNCaP, 48 h”, halving of growth (GI50) required 11.3 µM.

`CCCCCc1ccc(S(=O)(=O)NC(CN(C)C)c2ccc(Cl)c(Cl)c2)cc1` (stereo not drawn) [Compound 215, N-(1-(3,4-dichlorophenyl)-2-(dimethylamino)ethyl)-4-pentylbenzenesulfonamide] came in with a GI50 (LNCaP, 48 h) of 7.5 µM.

For the molecule `CN(C)CC(NS(=O)(=O)c1ccc(C2=CCOCC2)cc1)c1ccc(Cl)c(Cl)c1` (stereo not drawn) [Compound 216, N-(1-(3,4-dichlorophenyl)-2-(dimethylamino)ethyl)-4-(3,6-dihydro-2H-pyran-4-yl)benzenesulfonamide], for the setting “LNCaP, 48 h”, it took 8.18 µM to inhibit growth by half (GI50). Same read-out and setting: to `CN(C)CC(NS(=O)(=O)c1ccc(Cl)c(F)c1)c1ccc(Cl)c(Cl)c1` (stereo not drawn) [Compound 217, 4-chloro-N-(1-(3,4-dichlorophenyl)-2-(dimethylamino)ethyl)-3-fluorobenzenesulfonamide] belongs 49.5 µM. The molecule `CN(C)CC(NS(=O)(=O)c1ccc(-c2ccccn2)cc1)c1ccc(Cl)c(Cl)c1` (stereo not drawn) [Compound 218, N-(1-(3,4-dichlorophenyl)-2-(dimethylamino)ethyl)-4-(pyridin-2-yl)benzenesulfonamide] gave a GI50 (LNCaP, 48 h) of 43.7 µM. For the molecule `CN(C)CC(NS(=O)(=O)c1ccc(OC(F)(F)F)cc1)c1ccc(C(F)(F)F)cc1` (stereo not drawn) [Compound 219, N-(2-(dimethylamino)-1-(4-(trifluoromethyl)phenyl)ethyl)-4-(trifluoromethoxy)benzenesulfonamide], the GI50 (48 hours) turned out to be 43.6 µM. Where the note is “LNCaP, 48 h”, `CN(C)CC(NS(=O)(=O)c1ccc(Oc2cccc(F)c2)cc1)c1ccc(Cl)c(Cl)c1` (stereo not drawn) [Compound 220, N-(1-(3,4-dichlorophenyl)-2-(dimethylamino)ethyl)-4-(3-fluorophenoxy)benzenesulfonamide] registered a GI50 of 21.1 µM. Take `CN(C)CC(NS(=O)(=O)c1ccc(Oc2ccc(F)cc2)cc1)c1ccc(Cl)c(Cl)c1` (stereo not drawn) [Compound 221, N-(1-(3,4-dichlorophenyl)-2-(dimethylamino)ethyl)-4-(4-fluorophenoxy)benzenesulfonamide]: it took 26.6 µM to inhibit growth (LNCaP, 48 h) by half (GI50).

Take `CN(C)CC(NS(=O)(=O)c1ccc([N+](=O)[O-])c(OC(F)(F)F)c1)c1ccc(Cl)c(Cl)c1` (stereo not drawn) [Compound 222, N-(1-(3,4-dichlorophenyl)-2-(dimethylamino)ethyl)-4-nitro-3-(trifluoromethoxy)benzenesulfonamide]: the GI50 (48 hours) turned out to be 1.34 µM. Same read-out and setting: to `CN(C)CC(NS(=O)(=O)c1cccc(OC(F)(F)F)c1[N+](=O)[O-])c1ccc(Cl)c(Cl)c1` (stereo not drawn) [Compound 223, N-(1-(3,4-dichlorophenyl)-2-(dimethylamino)ethyl)-2-nitro-3-(trifluoromethoxy)benzenesulfonamide] belongs 57.4 µM. Take `CC(C)(C)OC(=O)NCC(NS(=O)(=O)c1ccc(OC(F)(F)F)cc1)c1ccc(Cl)c(Cl)c1` (stereo not drawn) [Compound 224, tert-butyl (2-(3,4-dichlorophenyl)-2-((4-(trifluoromethoxy)phenyl)sulfonamido)ethyl)carbamate]: under “LNCaP, 48 h”, the GI50 stood at 15.9 µM. Consider `NCC(NS(=O)(=O)c1ccc(OC(F)(F)F)cc1)c1ccc(Cl)c(Cl)c1` (stereo not drawn) [Compound 225, N-(2-amino-1-(3,4-dichlorophenyl)ethyl)-4-(trifluoromethoxy)benzenesulfonamide hydrochloride], for which, for the setting “LNCaP, 48 h”, growth was halved (GI50) at 21.8 µM. On the same count and under the same terms, to `COC(=O)c1cc(S(=O)(=O)NC(CN(C)C)c2ccc(Cl)c(Cl)c2)ccc1OC(F)(F)F` (stereo not drawn) [Compound 226, methyl 5-(N-(1-(3,4-dichlorophenyl)-2-(dimethylamino)ethyl)sulfamoyl)-2-(trifluoromethoxy)benzoate] belongs 70.6 µM; to `O=S(=O)(NCC1(c2ccc(Cl)c(Cl)c2)CC1)c1ccc(OC(F)(F)F)cc1` [Compound 227, N-((1-(3,4-dichlorophenyl)cyclopropyl)methyl)-4-(trifluoromethoxy)benzenesulfonamide], 48.6 µM; to `O=S(=O)(NCC1(c2ccc(Cl)cc2)CC1)c1ccc(OC(F)(F)F)cc1` [Compound 228, N-((1-(4-chlorophenyl)cyclopropyl)methyl)-4-(trifluoromethoxy)benzenesulfonamide], 59.9 µM. In turn, `O=S(=O)(NCC1(c2ccc(Cl)cc2)CCC1)c1ccc(OC(F)(F)F)cc1` [Compound 229, N-((1-(4-chlorophenyl)cyclobutyl)methyl)-4-(trifluoromethoxy)benzenesulfonamide] came in with a GI50 (LNCaP, 48 h) of 42.5 µM. `CC1(C)CC1(CNS(=O)(=O)c1ccc(OC(F)(F)F)cc1)c1ccccc1` (stereo not drawn) [Compound 230, N-((2,2-dimethyl-1-phenylcyclopropyl)methyl)-4-(trifluoromethoxy)benzenesulfonamide] yielded a GI50 (LNCaP, 48 h) of 37.3 µM. The GI50 values of the last two molecules are within 1.5-fold of each other.

A word on the GI50: it is the concentration at which growth is held to half of that of the control. A lower GI50 goes with greater sensitivity of the cells.
